# Patent US7868163B2, “Adenyl dinucleotides with antitumour activity and a method of preparing thereof” (Universita' Degli Studi Di Genova, priority 2005, dated 2011)
# Like-named read-outs stand apart in the source and are kept apart here.
# Tests used:
# Recombinant CD38 = assay: Hydrolysis by recombinant CD38
# Experimental: (§1) ADP-ribosyl cyclases from lower and higher Metazoa were incubated in the presence of 0.1 mM cADPR and 1 mM adenine at pH 7.4 in 10 mM Tris-HCl (A, B and C) or in PBS-glucose (D) at 22° C. (A and B) or at 37° C. (C and D) for 4 hours. Aliquots of the various incubations were deproteinised with TCA (trichloroacetic acid) and subjected to HPLC (analytical phosphate). Chromatograms representative of each incubation are shown. A. A. polypoides; B. A. californica; C. Human CD38 (recombinant); D. Human HeLa cells transfected with sense and antisense human CD38 (dashed chromatogram).
# (§2) In table 1, the absolute values of the peak-forming and -hydrolysing activities are compared with the cADPR-forming and -hydrolysing activities for each enzyme. The activities are expressed as nmol/min/mg.
# [1] = molecular target: T1, A. californica ADP-ribosyl cyclase (Aplysia californica, UniProt P29241); assay: Hydrolysis by Aplysia californica ADP-ribosyl cyclase; type: in vitro ADME; conditions: P18 to adenine and ADPR
# T1 construct: The cyclase purified from the mollusc Aplysia californica was purchased from Sigma; purchased Sigma; host or cells: purified from the mollusc
# T1 sequence (P29241 25-282): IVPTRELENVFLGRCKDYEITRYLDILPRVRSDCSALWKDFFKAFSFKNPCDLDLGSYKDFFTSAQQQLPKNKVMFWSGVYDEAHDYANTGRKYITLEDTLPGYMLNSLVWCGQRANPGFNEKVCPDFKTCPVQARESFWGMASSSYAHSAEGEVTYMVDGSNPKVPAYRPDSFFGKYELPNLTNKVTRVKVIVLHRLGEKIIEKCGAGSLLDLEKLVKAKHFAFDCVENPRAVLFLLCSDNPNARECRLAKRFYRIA
# Experimental: (A and B) or at 37° C. (C and D) for 4 hours. […] Chromatograms representative of each incubation are shown. A. A. polypoides; B. A. californica; C.
# The activities are expressed as nmol/min/mg.
# [2] = test system: A. polypoides ADP-ribosyl cyclase; assay: Hydrolysis by purified Axinella polypoides ADP-ribosyl cyclase; conditions: purified A. polypoides cyclase; P18 to cADPR and adenine
# Experimental: as §1, §2
# [3] = molecular target: NAD-glycohydrolase (NAD-ase, from Neurospora) (Neurospora crassa, UniProt Q7S936); assay: Resistance to NAD-glycohydrolase catalysed hydrolysis
# NAD-glycohydrolase (NAD-ase, from Neurospora), sequence (Q7S936 20-243): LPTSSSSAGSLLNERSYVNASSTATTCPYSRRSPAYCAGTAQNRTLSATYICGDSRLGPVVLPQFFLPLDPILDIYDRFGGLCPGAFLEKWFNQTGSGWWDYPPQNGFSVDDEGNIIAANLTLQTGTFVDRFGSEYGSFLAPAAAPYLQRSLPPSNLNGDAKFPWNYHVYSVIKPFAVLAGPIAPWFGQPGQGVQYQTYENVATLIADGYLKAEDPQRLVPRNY
# Experimental: The HPLC fractions were lyophilised, resuspended in 200 μl water and the pH eas adjusted to 7.5 with 5N NaOH. Then, in order to remove all traces of NAD^+ and cADPR (which might interfere with the enzymatic assay), NAD-glycohydrolase (NAD-ase, from Neurospora, Sigma) (0.013 IU), recombinant CD38 (0.1 μg, provided by Prof. H. C. Lee, Minneapolis, Minn.) and 2 mM MgCl2 were added to each fraction. […] All fractions were incubated at 37° C. for 18 hours, and the enzymes were removed by filtration with Immobilon-P membranes (Millipore, Bedford, Mass.). The samples were then subdivided into two aliquots and the P18 determination reactions were performed in 96 well plates, at room temperature. 50 μl of a mixture containing 30 mM nicotinamide, 100 mM sodium phosphate, with or without 0.1 μg/μl of ADP-ribosyl cyclase purified from A. polypoides, were added to 100 μl of each sample.
hydrolysis activity (Recombinant CD38),Structure (SMILES),hydrolysis activity [1],resistance to CD38 catalysed hydrolysis (Recombinant CD38; recombinant CD38),"hydrolysis activity (Recombinant CD38; recombinant CD38, P18 and P24 to adenine and ADPR)",hydrolysis activity [2],resistance to NAD-ase catalysed hydrolysis [3]
0.25^1 nmol/min/mg,Nc1ncn([C@@H]2O[C@H](COP(=O)(O)OP(=O)(O)OC[C@H]3O[C@@H](n4cnc5c(N)ncnc54)[C@H](O)[C@@H]3O)[C@@H](O)[C@H]2O)c2ncnc1-2 [P24],,,,,
,Nc1ncnc2c1ncn2[C@@H]1O[C@H](COP(=O)(O)OP(=O)(O)OC[C@H]2O[C@@H](n3cnc4ncnc-4c3N)[C@H](O)[C@@H]2O)[C@@H](O)[C@H]1O [P18],3.5^1 nmol/min/mg,resistance,6.0^1 nmol/min/mg,10.5^2 nmol/min/mg,resistance
